The source of these data is US12662676B2, “Aptamer nucleic acid molecule, and complex and application thereof” (EAST CHINA UNIVERSITY OF SCIENCE AND TECHNOLOGY, priority 2019, dated 2026).

Sequences and labels used below:
B1: TagBFP-4Pepper: TagBFP mRNA fused with 4Pepper-7, SEQ ID No: 27 (nucleic acid)
chain: AUGAGCGAGCUGAUUAAGGAGAACAUGCACAUGAAGCUGUACAUGGAGGGCACCGUGGACAACCAUCACUUCAAGUGCACAUCCGAGGGCGAAGGCAAGCCCUACGAGGGCACCCAGACCAUGAGAAUCAAGGUGGUCGAGGGCGGCCCUCUCCCCUUCGCCUUCGACAUCCUGGCUACUAGCUUCCUCUACGGCAGCAAGACCUUCAUCAACCACACCCAGGGCAUCCCCGACUUCUUCAAGCAGUCCUUCCCUGAGGGCUUCACAUGGGAGAGAGUCACCACAUACGAAGACGGGGGCGUGCUGACCGCUACCCAGGACACCAGCCUCCAGGACGGCUGCCUCAUCUACAACGUCAAGAUCAGAGGGGUGAACUUCACAUCCAACGGCCCUGUGAUGCAGAAGAAAACACUCGGCUGGGAGGCCUUCACCGAGACGCUGUACCCCGCUGACGGCGGCCUGGAAGGCAGAAACGACAUGGCCCUGAAGCUCGUGGGCGGGAGCCAUCUGAUCGCAAACAUCAAGACCACAUAUAGAUCCAAGAAACCCGCUAAGAACCUCAAGAUGCCUGGCGUCUACUAUGUGGACUACAGACUGGAAAGAAUCAAGGAGGCCAACAACGAGACCUACGUCGAGCAGCACGAGGUGGCAGUGGCCAGAUACUGCGACCUCCCUAGCAAACUGGGGCACAAGCUCAAUUAACACUCGCUAGAGCAUGGUUGGUACCGUAGUCAAGCUUCCCACGGAGGAUCCCCAAUCGUGGCGUGUCGGCCUCUCCCAAUCGUGGCGUGUCGGCCUCUCCCAAUCGUGGCGUGUCGGCCUCUCCCAAUCGUGGCGUGUCGGCCUCUCUUCGGAGAGGCACUGGCGCCGGAGAGGCACUGGCGCCGGAGAGGCACUGGCGCCGGAGAGGCACUGGCGCCGGGAUCCUCCGUGGG
B2: F30-Broccoli: reported monomeric Broccoli aptamer in F30 scaffold, SEQ ID NO: 4, control (nucleic acid)
chain: UUGCCAUGUGUAUGUGGGUUCGCCCACAUACUCUGAUGAUCCAGACGGUCGGGUCCAGAUAUUCGUAUCUGUCGAGUAGAGUGUGGGCUGGAUCAUUCAUGGCAA
modifications: listed as RNA, further chemistry not given here

The nature of the first data set: RNA extraction and purification with Mal-III-3 beads, in-gel fluorescence. The conditions noted are these: gel incubated with 5 μM III-3 for 30 min. How it is done: In order to use Pepper for RNA extraction and purification, the pCDNA3.1 hygro(+)-TagBFP-4Pepper-7 and pCDNA3.1 hygro(+)-mCherry-4Pepper-7 plasmids in Example 12 were transfected into COS-7 cells, respectively. 24 hours after transfection, the cells were collected and the total RNA of the cells was extracted using the Easyp Super Total RNA Extraction Kit (Promega). The extracted total RNA was dissolved in buffer containing 40 mM HEPES, pH 7.4, 125 mM KCl, 5 mM MgCl2. The RNA was incubated at 70° C. for 10 min and placed at room temperature for more than 30 min.
500 μL activated Thiol Sepharose 4B (GE Healthcare) was washed twice with 500 μL PBS, and then was incubated with PBS containing 10 mM TCEP (Sigma) for 1 h at room temperature. After washing twice with 500 μL PBS, maleamide conjugated III-3 fluorophore (Mal-III-3) was added to react for 30 min at room temperature, and was washed three times with 500 μL PBS. The treated total RNA was incubated with the treated beads at room temperature. After 30 minutes, the mixture was centrifuged at 4000 rpm for 2 minutes, and the supernatant was discarded. […]
The recovered RNA was validated by electrophoresis. The gel was incubated with buffer containing 5 μM III-3 in 40 mM HEPES, pH 7.4, 125 mM KCl, and 5 mM MgCl2 for 30 min, and the fluorescence of 4Pepper-III-3 in the gel was detected.
Regarding B1, the “in-gel fluorescence of recovered RNA” value is on record as “bright Pepper-III-3 fluorescence signals”.

A short description of the next data set: Thermostability of Pepper (fluorescence after 5 minutes at different temperatures). It counts as physicochemical. The note with it: 1 μM aptamer with 10 μM fluorophore (III-3 for F30-Pepper-1, DFHBI-1T for F30-Broccoli), 5 minutes at each temperature. As for the experimental part:
In order to test the thermostability of Pepper, 10 μM III-3 was incubated with 1 μM F30-Pepper-1, and then was placed at different temperatures for 5 minutes before the fluorescence was determined. 10 μM DFHBI-1T was incubated with 1 μM F30-Broccoli to be as the control.
Regarding B2, the Tm came to 48 °C.

A further data set in a line: Fluorescence activation of III-3 fluorophore by Pepper aptamers and mutants. It counts as biochemical. The conditions noted are these: Activation of III-3 by Pepper mutants with single mutation; 1 μM III-3 with 5 μM RNA. How it is done:
Preparation of Pepper or Pepper mutant aptamer according to the commonly used experimental method (1). 5 μM aptamer and 1 μM fluorophore were incubated in the detection buffer (40 mM HEPES, pH 7.4, 125 mM KCl, 5 mM MgCl2, 5% DMSO). The maximal excitation and emission peaks of the aptamer-fluorophore complexes were determined using a Synergy Neo2 multifunctional microplate reader. The fluorescence intensities of the aptamer-fluorophore complexes at the maximal excitation and emission peaks were determined using a Synergy Neo2 multifunctional microplate reader. The control sample (1 μM fluorophore without aptamer) was also measured under the same conditions. Then the ratios of fluorescence intensity were calculated. For example, the fluorescence maximal excitation and emission peaks of the complex of 5 μM F30-Pepper-2 and 1 μM III-3 fluorophore are 485 nm and 530 nm, respectively. The fluorescence intensity of the complex at 485±10 nm excitation and 530 nm±10 nm emission was 36,000, the fluorescence intensity of the control sample (1 μM III-3 fluorophore only) under the same detection conditions was 10. Thus, the activation ratio of F30-Pepper-2 aptamer on III-3 fluorophore was 3,600-fold.
In order to detect the fluorescence activation of III-3 fluorophore by different Pepper mutant, the Pepper-1 sequence in F30-Pepper-1 was mutated according to Table 1. […] 1 μM III-3 was incubated with […] RNA and their fluorescence activation folds were determined according to the commonly used experimental method (5). […] In summary, many Pepper mutants containing single and multiple mutants still retain the ability to activate the fluorescence of III-3 fluorophore.
In order to detect the activation of III-3 by modified Pepper, base-modified Pepper-3 was synthesized (SEQ ID NO: 6, the underlined nucleotides in […] GGCC contain deoxyribonucleotide bases) and Pepper-4 (SEQ ID NO: 7, the underlined nucleotides in […] GGGCC contain 2′-F modification) (synthesized by Shanghai GenePharma Co., Ltd), which contain deoxyribonucleotides replacement (shaded bases in FIG. 5A) or 2′-F modification (shaded bases in FIG. 5B) in the stem-loop region of Pepper. Detection of the fluorescence activation of III-3 fluorophore by these modified Peppers was carried out according to the commonly used experimental method (5).
Regarding “G11U: F30-Pepper-1 mutant aptamer (NCCAAUCGUGUCGUGUCGNNNACUGGCGCCGN; RNA, backbone, methylation of C and the base at N not given here; Pepper aptamer mutant embedded in F30 scaffold) [Compound G11U]”, the Activation folds stood at 1512 folds.
The same measure, in the same setting: the same measure for “G13C: F30-Pepper-1 mutant aptamer (NCCAAUCGUGGCCUGUCGNNNACUGGCGCCGN; RNA, backbone, methylation of C and the base at N not given here; Pepper aptamer mutant embedded in F30 scaffold) [Compound G13C]”: 1758 folds.
The same measure, in the same setting: the value for “G18C: F30-Pepper-1 mutant aptamer (NCCAAUCGUGGCGUGUCCNNNACUGGCGCCGN; RNA, backbone, methylation of C and the base at N not given here; Pepper aptamer mutant embedded in F30 scaffold) [Compound G18C]” was 1028 folds; that for “G18U: F30-Pepper-1 mutant aptamer (NCCAAUCGUGGCGUGUCUNNNACUGGCGCCGN; RNA, backbone, methylation of C and the base at N not given here; Pepper aptamer mutant embedded in F30 scaffold) [Compound G18U]” was 1024 folds.
Still for that read-out and setting: the same measure for “G28U: F30-Pepper-1 mutant aptamer (NCCAAUCGUGGCGUGUCGNNNACUGGCUCCGN; RNA, backbone and the base at N not given here; Pepper variant inserted in F30 scaffold RNA) [Compound G28U]”: 873 folds; for “U6A: F30-Pepper-1 mutant aptamer (NCCAAACGUGGCGUGUCGNNNACUGGCGCCGN; RNA, backbone and the base at N not given here; Pepper variant inserted in F30 scaffold RNA) [Compound U6A]”: 1872 folds.
On to “U6C: F30-Pepper-1 mutant aptamer (NCCAACCGUGGCGUGUCGNNNACUGGCGCCGN; RNA, backbone and the base at N not given here; Pepper variant inserted in F30 scaffold RNA) [Compound U6C]”, for which the Activation folds worked out at 2088 folds.
The same measure, in the same setting: the same measure for “U9A: F30-Pepper-1 mutant aptamer (NCCAAUCGAGGCGUGUCGNNNACUGGCGCCGN; RNA, backbone and the base at N not given here; Pepper variant inserted in F30 scaffold RNA) [Compound U9A]”: 2124 folds; for “U14A: F30-Pepper-1 mutant aptamer (NCCAAUCGUGGCGAGUCGNNNACUGGCGCCGN; RNA, backbone and the base at N not given here; Pepper variant inserted in F30 scaffold RNA) [Compound U14A]”: 1524 folds.

Staying with this data set, now noted: deoxyribonucleotide or 2′-F modification in stem-loop region.
As for “Pepper-3: base-modified Pepper, SEQ ID NO: 6, deoxyribonucleotides replacement in the stem-loop region (GGCCCCCAAUCGUGGCGUGUCGGCCUGCUUCGGCAGGCACUGGCGCCGGGGCC; deoxyribonucleotides at some stem-loop positions, underlined positions not recoverable, further chemistry not given here)”, the “fluorescence activation of III-3 by base-modified Pepper” value was “significantly activate the fluorescence of III-3 fluorophore”.
Same read-out and setting: the same measure for “Pepper-4: base-modified Pepper, SEQ ID NO: 7, 2′-F modification in the stem-loop region (GGCCCCCCAAUCGUGGCGUGUCGGCCUGCUUCGGCAGGCACUGGCGCCGGGGGCC; 2'-fluoro at some stem-loop positions, underlined positions not recoverable, further chemistry not given here)”: “significantly activate the fluorescence of III-3 fluorophore”.
